Assays:
Assay type in all cases: in vivo
[1] = test system: HN5 (human head and neck tumor line); assay: HN5 subcutaneous human xenograft mouse model, anti-tumor activity; conditions: monotherapy, at highest dose; HN5 s.c. xenograft; FIG. 1
Experimental: HN5 cells were cultured in RPMI 1640+10% Fetal bovine serum, Sodium pyruvate and L-Glutamine at 37° in a 95/5% air/CO2 atmosphere. Cells were harvested following trypsin digestion and brought to a density of 2×10^6 cells/200 μl in PBS. Tumors were initiated by injection of the cell suspension subcutaneously in the axillary region.
For the xenograft models used here solid tumors were measured by electronic caliper measurement through the skin, measurements were typically made twice weekly. In the examples presented, tumors were monitored beyond the duration of therapy
Drugs were administered by P.O. or IV. routes. The title compound or salt thereof of Example 1 was formulated in aqueous 0.5% hydroxypropyl methylcellulose, 0.1% Tween 80 and administered as a suspension twice daily for 21 days as indicated in the respective figures. TAXOL® (paclitaxel) (Bristol Myers Squibb Co.) was purchased preformulated in Cremophor-EL saline and diluted into saline to a final Cremophor-EL concentration of 5 or 10% Cremophor-EL for 10 or 20 mg/kg TAXOL® (paclitaxel) therapy respectively. TAXOL® (paclitaxel) was administered IV., once a day, for 5 days (days 1-5 of Example 1 therapy) as indicated in the respective figures. […]

[2] = test system: BT474 (human breast tumor line); assay: BT474 subcutaneous human xenograft mouse model, anti-tumor activity; conditions: monotherapy (Example 1 at the highest dose tested); BT474 s.c. xenograft; FIG. 2
Experimental: The BT474 xenograft was maintained by serial transplantation in SCID mice. Tumors are initiated by injection of tumor fragments subcutaneously in the axillary region.
Drugs were administered by P.O. or IV. routes. The title compound or salt thereof of Example 1 was formulated in aqueous 0.5% hydroxypropyl methylcellulose, 0.1% Tween 80 and administered as a suspension twice daily for 21 days as indicated in the respective figures. TAXOL® (paclitaxel) (Bristol Myers Squibb Co.) was purchased preformulated in Cremophor-EL saline and diluted into saline to a final Cremophor-EL concentration of 5 or 10% Cremophor-EL for 10 or 20 mg/kg TAXOL® (paclitaxel) therapy respectively. TAXOL® (paclitaxel) was administered IV., once a day, for 5 days (days 1-5 of Example 1 therapy) as indicated in the respective figures. Carboplatin (Sigma) was formulated in saline and was administered I.V., once a day, for two 5 day periods as indicated in the respective figure (days 1-5 and 15-19 of Example 1 therapy).

[3] = test system: NCI H322 (human lung tumor line); assay: NCI H322 subcutaneous human xenograft mouse model, anti-tumor activity; conditions: monotherapy; NCI H322 s.c. xenograft; FIG. 3
Experimental: Cells were harvested following trypsin digestion and brought to a density of 2×10^6 cells/200 μl in PBS. Tumors were initiated by injection of the cell suspension subcutaneously in the axillary region. In addition some experiments were performed following serial transplantation of tumor fragments in SCID mice. Tumors were initiated by injection of tumor fragments subcutaneously in the axillary region.

Row | SMILES | tumor growth inhibition [1] | tumor growth inhibition [2] | tumor growth inhibition [3]
1 | N.N.O=C([O-])C1(C(=O)[O-])CCC1.[Pt+2] [Carboplatin, platinum, diammine [1,1-cyclobutane-dicarboxylate(2-)-O,O′]] | about 45% | – | –
2 | CS(=O)(=O)CCNCc1ccc(-c2ccc3ncnc(Nc4ccc(OCc5cccc(F)c5)c(Cl)c4)c3c2)o1 [Example 1, N-{3-Chloro-4-[(3-fluorobenzyl)oxy]phenyl}-6-[5-({[2-(methylsulfonyl)ethyl]amino}methyl)-2-furyl]-4-quinazolinamine] | about 80% | about 90% | 100-130%
3 | CC(=O)O[C@H]1C(=O)[C@@]2(C)[C@H]([C@H](OC(=O)c3ccccc3)[C@]3(O)C[C@H](OC(=O)[C@H](O)[C@@H](NC(=O)c4ccccc4)c4ccccc4)C(C)=C1C3(C)C)[C@]1(OC(C)=O)CO[C@@H]1C[C@@H]2O [TAXOL® (paclitaxel), 5β,20-epoxy-1,2α,4,7β,10β,13α-hexa-hydroxytax-11-en-9-one 4,10-diacetate 2-benzoate 13-ester with (2R,3S)-N-benzoyl-3-phenylisoserine] | – | about 45% | about 45%

Reference: patent US8444988B2, “Cancer treatment method” (GlaxoSmithKline LLC, priority 2001, dated 2013)
